Structures can show the parent of a compound that is named as a salt. Where two headings read alike, the source gives them in different places.
Legend:
Reck gene promoter [1] = test: SEAP assay in YM3 cells (Reck gene promoter-reporter system); format: cell-based, mouse
Description: A 4.1-kb upstream region of a mouse Reck gene (Gene ID: 53614, Chromosome 4—NC—000070.5 43884251-43888453) was inserted into a pSEAP2-Basic vector (Clontech) to give a pSEAP-RP4.1 plasmid. […] Biochem Biophys Res Commun 1999; 264: 668-675.). […] TF323-C3 cells can be distributed from one of the inventors Makoto Noda.
YM3 cells were seeded onto 96-well plates at 1×10^4 cells in 100 μl per well and incubation was performed for 5 hours to allow the cells to settle. A compound solution (500 μM, 1 μl) was added to the medium. The employed test compounds were those in the chemical library Prestwick Chemical Library (Prestwick Chemical, Illkirch, France), which is composed of 880 structurally diverse known bioactive compounds, dissolved in nano-pure grade dimethyl sulfoxide (DMSO; Wako). […] A vehicle (DMSO, 1 μl) alone as a negative control and hypothemycin (HPM, 1 mg/ml) as a positive control were added to two wells per plate. Each sample was tested on two different plates (duplicate samples).
After incubation for 48 hours, a portion (10 μl) of the culture supernatant was sampled, incubated at 65° C. (heat treatment) for 30 minutes, and then subjected to the SEAP assay using Great EscAPe™ SEAP Chemiluminescence Detection Kit (Takara Bio). The remaining medium and the cells were subjected to the cell-counting assay using SF reagent. That is, SF reagent (Nacalai) (10 μl per well) was added to the medium, the plates were incubated for 3 hours in a CO2 incubator, and the absorbance at 450 nm (A450) was measured to obtain relative cell numbers. For the SEAP activity data, “SEAP measured value/A450 value” was defined as “SEAP activity per cell”, and the value obtained by dividing “SEAP activity per cell” of each compound by “SEAP activity per cell” of the negative control was defined as “relative SEAP activity”. The mean “relative SEAP activity” of the duplicate samples and the standard error thereof were determined. For the cell number data, the value obtained by dividing the SF measured value of each compound by the SF measured value of the negative control was defined as “relative cell number”, and the mean value of the duplicate samples and the standard error thereof were determined. Samples with a large standard error were tested again. In the experiment, duplicate samples were prepared each in a regular liquid medium and in a liquid medium containing Dox (2 μg/ml), and four mean values (the relative cell number and the relative SEAP activity in the Ras-ON state and the relative cell number and the relative SEAP activity in the Ras-OFF state) were obtained (see FIG. 3).

RM72 cells = format: in vivo; conditions: mouse, in vivo
Description: RM72 cells (3×10^6 cells) suspended in 0.1 ml of PBS were subcutaneously injected into the right posterior flank of Balb/c nude mice (6 weeks old, male, Charles River). […]. After 14-day treatment, the mice were anesthetized and their bioluminescence was recorded by the method described below. After the whole-body recording of the bioluminescence, the lung was resected, washed with PBS (−), and subjected to bioluminescence recording. The tumor size (length×width×height) was measured once a week. Statistical significance was assessed by Student's t-test.
Mice under anesthesia were intraperitoneally injected with 75 mg/kg of d-luciferin dissolved in PBS (−). Bioluminescence images were acquired with IVIS ImagingSystem (Xenogen) at 5 minutes after the injection (Wang S, El-Deiry W S. Requirement of p53 targets in chemosensitization of colonic carcinoma to death ligand therapy. Proc Natl Acad Sci USA 2003; 100: 15095-15100; Minn A J, Kang Y, Serganova I, Gupta G P, Giri D D, Doubrovin M, Ponomarev V, Gerald W L, Blasberg R, Massague J. Distinct organ-specific metastatic potential of individual breast cancer cells and primary tumors. J Clin Invest 2005; 115: 44-55). The photons emitted from the whole bodies or the isolated organs were collected for a period of 60 seconds and integrated. The images were analyzed using Living Image software (Xenogen).
The anti-tumorigenic and anti-metastatic activities of Pyt, Hr, Gra and Lyc were investigated with the same protocol as in Example 9. The experiment was conducted in two batches: Experiment 1 for three groups of a Pyt group, a Hr group and a vehicle group and Experiment 2 for three groups of a Gra group, a Lyc group and a vehicle group. The doses of the test compounds were set at two different quantities considered to be appropriate based on literature (see Tables 3 and 4).

Reck gene promoter [2] = test: SEAP assay in YM3 cells (Reck gene promoter-reporter system); format: cell-based, mouse; conditions: determined by dose-response assays (0.0617, 0.185, 0.556, 1.67, 5.00 μM) using YM3 cells
[3] = in the presence of Dox (HRAS12V-off)
[4] = relative SEAP activity at optimal conc., YM3 cells, regular medium (Ras-ON)

Molecule | Activity in Dox (Reck gene promoter [1]; [3]) | Induction (fold) (Reck gene promoter [1]; [4]) | further results
CCCSc1ccc2nc(NC(=O)OC)[nH]c2c1 [Albendazole] | – | – | Activity in Dox (Reck gene promoter [1]): ± (key: +: more than 1.9-fold; ±: between 1.9 and 1.5-fold; −: less than 1.5-fold); Induction (fold) (Reck gene promoter [1]): 2.89 fold
CC[C@@]1(O)C(=O)OCc2c1cc1n(c2=O)Cc2cc3ccccc3nc2-1 [Camptothecine (S, +)] | + (more than 1.9-fold) | 7.71 | Optimal conc. (Reck gene promoter [1]): 5.00 µM
CC[C@H]1CN2CCc3cc(OC)c(OC)cc3[C@@H]2C[C@@H]1C[C@H]1NCCc2cc(O)c(OC)cc21.Cl.Cl.O.O.O.O.O.O.O [Cephaeline dihydrochloride heptahydrate] | + (more than 1.9-fold) | 5.61 | Optimal conc. (Reck gene promoter [1]): 5.00 µM
C[C@@H]1C[C@@H]([C@H](O)CC2CC(=O)NC(=O)C2)C(=O)[C@@H](C)C1 [Cycloheximide] | ± (between 1.9 and 1.5-fold) | 2.29 | –
COc1cccc2c1C(=O)c1c(O)c3c(c(O)c1C2=O)C[C@@](O)(C(C)=O)C[C@@H]3O[C@H]1C[C@H](N)[C@H](O)[C@H](C)O1 [Daunorubicin hydrochloride] | + (more than 1.9-fold) | 6.22 | –
CN(C)[C@@H]1C(O)=C(C(N)=O)C(=O)[C@@]2(O)C(O)=C3C(=O)c4c(O)ccc(Cl)c4[C@@H](O)[C@H]3C[C@@H]12 [Demeclocycline hydrochloride] | − (less than 1.5-fold) | 2.57 | –
CCOC(=O)NC1=C(N2CC2)C(=O)C(NC(=O)OCC)=C(N2CC2)C1=O [Diaziquone] | ± (between 1.9 and 1.5-fold) | 3.54 | –
CCN(CC)C(=S)SSC(=S)N(CC)CC [Disulfiram] | + (more than 1.9-fold) | 18.0 | –
C[C@H]1c2cccc(O)c2C(=O)C2=C(O)[C@]3(O)C(=O)C(C(N)=O)=C(O)[C@@H](N(C)C)[C@@H]3[C@@H](O)[C@@H]21 [Doxycycline hydrochloride] | − (less than 1.5-fold) | 1.96 | –
CC[C@H]1CN2CCc3cc(OC)c(OC)cc3[C@@H]2C[C@@H]1C[C@H]1NCCc2cc(OC)c(OC)cc21 [Emetine dihydrochloride] | − (less than 1.5-fold) | 3.79 | –
COc1cc([C@@H]2c3cc4c(cc3[C@@H](O[C@@H]3O[C@@H]5CO[C@@H](C)O[C@H]5[C@H](O)[C@H]3O)[C@H]3COC(=O)[C@H]23)OCO4)cc(OC)c1O [Etoposide] | + (more than 1.9-fold) | 1.99 | –
COc1cc(O)c2c(c1)[C@H]1O[C@@H]1C[C@H](O)[C@H](O)C(=O)/C=C\C[C@H](C)OC2=O [HPM, hypothemycin] | – | – | SEAP up-regulation in YM3 cells (Reck gene promoter [1]; 1 μg/ml): up-regulated; up-regulation of SEAP activity (Reck gene promoter [1]; positive control, typical): about twofold
Clc1cc(Cl)c(OCC#CI)cc1Cl [Haloprogin] | + (more than 1.9-fold) | 3.48 | –
CCN(CC)CCNc1ccc(CO)c2sc3ccccc3c(=O)c12 [Hycanthone] | + (more than 1.9-fold) | 2.02 | –
CC1=CC(=O)c2ccccc2C1=O [Menadione] | + (more than 1.9-fold) | 3.21 | –
CN(Cc1cnc2nc(N)nc(N)c2n1)c1ccc(C(=O)N[C@@H](CCC(=O)O)C(=O)O)cc1 [Methotrexate] | ± (between 1.9 and 1.5-fold) | 3.42 | –
CN(C)c1ccc(O)c2c1C[C@H]1C[C@H]3[C@H](N(C)C)C(O)=C(C(N)=O)C(=O)[C@@]3(O)C(O)=C1C2=O [Minocycline hydrochloride] | − (less than 1.5-fold) | 2.54 | –
O=C1c2c(O)ccc(O)c2C(=O)c2c(NCCNCCO)ccc(NCCNCCO)c21 [Mitoxantrone dihydrochloride] | + (more than 1.9-fold) | 3.60 | –
CC(=O)O[C@H]1C(=O)[C@@]2(C)[C@H]([C@H](OC(=O)c3ccccc3)[C@]3(O)C[C@H](OC(=O)[C@H](O)[C@@H](NC(=O)c4ccccc4)c4ccccc4)C(C)=C1C3(C)C)[C@]1(OC(C)=O)CO[C@@H]1C[C@@H]2O [Paclitaxel] | ± (between 1.9 and 1.5-fold) | 3.32 | –
C1CCC(C(CC2CCCCN2)C2CCCCC2)CC1 (stereo not drawn) [Perhexiline maleate] | + (more than 1.9-fold) | 2.28 | –
COc1cc(/C=C/C(=O)N2CCC=CC2=O)cc(OC)c1OC [Piperlongumine] | − (less than 1.5-fold) | 2.06 | Optimal conc. (Reck gene promoter [1]): 5.00 µM
COc1cc([C@@H]2c3cc4c(cc3[C@H](O)[C@H]3COC(=O)[C@H]23)OCO4)cc(OC)c1OC [Podophyllotoxin] | ± (between 1.9 and 1.5-fold) | 2.48 | –
CCc1nc(N)nc(N)c1-c1ccc(Cl)cc1 [Pyrimethamine] | ± (between 1.9 and 1.5-fold) | 2.33 | –
[O-][n+]1ccccc1S [Pyrithione sodium salt] | – | – | Activity in Dox (Reck gene promoter [1]): + (key: +: more than 1.9-fold; ±: between 1.9 and 1.5-fold; −: less than 1.5-fold); Induction (fold) (Reck gene promoter [1]): 17.5 fold; Lung metastasis Mean (RM72 cells; 15 mg/kg/day): 11.6; Tumor Mean (RM72 cells; 15 mg/kg/day): 52.2; Lung metastasis Mean (RM72 cells; 50 mg/kg/day): 84.2; Tumor Mean (RM72 cells; 50 mg/kg/day): 74.4
O=C(c1ccc(OCCN2CCCCC2)cc1)c1c(-c2ccc(O)cc2)sc2cc(O)ccc12 [Raloxifene hydrochloride] | − (less than 1.5-fold) | 2.17 | –
Nc1nc(N)c2nc(-c3ccccc3)c(N)nc2n1 [Triamterene] | − (less than 1.5-fold) | 2.25 | –
CN(C)CCCN1c2ccccc2Sc2ccc(C(F)(F)F)cc21 [Triflupromazine hydrochloride] | – | – | Activity in Dox (Reck gene promoter [1]): − (key: +: more than 1.9-fold; ±: between 1.9 and 1.5-fold; −: less than 1.5-fold)
Meclocycline sulfosalicylate | − (less than 1.5-fold) | 2.59 | Optimal conc. (Reck gene promoter [2]): 0.0617 µM
Thimerosal | – | – | Activity in Dox (Reck gene promoter [1]): + (key: +: more than 1.9-fold; ±: between 1.9 and 1.5-fold; −: less than 1.5-fold); Induction (fold) (Reck gene promoter [1]): 9.33 fold; Optimal conc. (Reck gene promoter [1]): 5.00 µM
Trimeprazine tartrate | − (less than 1.5-fold) | 2.30 | Optimal conc. (Reck gene promoter [2]): 5.00 µM

Reference: patent US9018438B2, “Screening method for anticancer drugs” (Kyoto University, priority 2010, dated 2015)
